How the values were obtained:
Experiment in all cases: pre-emergence greenhouse herbicidal test
Format in all cases: in vivo
[1] = test system: AMARE (Amaranthus retroflexus); settings: pre-emergence method, scale from 0 to 100
Excerpt: (§1) The seeds of the test plants were sown separately for each species. For the pre-emergence treatment, the active ingredients, which had been suspended or emulsified in water, were applied directly after sowing by means of finely distributing nozzles. The containers were irrigated gently to promote germination and growth and subsequently covered with transparent plastic hoods until the plants had rooted. This cover caused uniform germination of the test plants, unless this had been impaired by the active ingredients. Depending on the species, the plants were kept at 10-25° C. or 20-35° C., respectively. The test period extended over 2 to 4 weeks. During this time, the plants were tended, and their response to the individual treatments was evaluated. Evaluation was carried out using a scale from 0 to 100. 100 means no emergence of the plants, or complete destruction of at least the aerial moieties, and 0 means no damage, or normal course of growth. A moderate herbicidal activity is given at values of at least 60, a good herbicidal activity is given at values of at least 70, and a very good herbicidal activity is given at values of at least 85. The plants used in the greenhouse experiments were of the following species: [table]

[2] = test system: ABUTH (Abutilon theophrasti); settings: pre-emergence method, application rate 0.500 kg/ha, scale from 0 to 100
Excerpt: as §1

[3] = test system: SETFA (Setaria faberi); settings: pre-emergence method, scale from 0 to 100
Excerpt: as §1

[4] = test system: ECHCG (Echinocloa crus-galli); settings: pre-emergence method, application rate 0.250 kg/ha, scale from 0 to 100
Excerpt: as §1

COC1(c2nc(N)nc(Nc3c(F)c(F)cc(F)c3F)n2)CCC1 [Example 1, 6-(1-methoxycyclobutyl)-N4-(2,3,5,6-tetrafluorophenyl)-1,3,5-triazine-2,4-diamine]
herbicidal activity against AMARE ([1]; application rate 0.500 kg/ha): very good herbicidal activity (a very good herbicidal activity is given at values of at least 85)
herbicidal activity against ABUTH [2]: very good herbicidal activity (a very good herbicidal activity is given at values of at least 85)
herbicidal activity against SETFA ([3]; application rate 0.500 kg/ha): very good herbicidal activity (a very good herbicidal activity is given at values of at least 85)

COC1(c2nc(N)nc(Nc3c(F)c(F)cc(F)c3F)n2)CCCC1 [Example 2, 6-(1-methoxycyclopentyl)-N2-(2,3,5,6-tetrafluorophenyl)-1,3,5-triazine-2,4-diamine]
herbicidal activity against AMARE ([1]; application rate 0.500 kg/ha): very good herbicidal activity (a very good herbicidal activity is given at values of at least 85)
herbicidal activity against ABUTH [2]: very good herbicidal activity (a very good herbicidal activity is given at values of at least 85)
herbicidal activity against SETFA ([3]; application rate 0.500 kg/ha): very good herbicidal activity (a very good herbicidal activity is given at values of at least 85)

COC1(c2nc(N)nc(Nc3c(F)c(F)cc(F)c3F)n2)CCCCC1 [Example 3, 6-(1-methoxycyclohexyl)-N2-(2,3,5,6-tetrafluorophenyl)-1,3,5-triazine-2,4-diamine]
herbicidal activity against AMARE ([1]; application rate 0.250 kg/ha): very good herbicidal activity (a very good herbicidal activity is given at values of at least 85)
herbicidal activity against ECHCG [4]: very good herbicidal activity (a very good herbicidal activity is given at values of at least 85)
herbicidal activity against SETFA ([3]; application rate 0.250 kg/ha): very good herbicidal activity (a very good herbicidal activity is given at values of at least 85)

— US9822082B2, “Diaminotriazine derivatives as herbicides” (BASF SE, priority 2014, dated 2017)
